The text below walks through data of patent US10544130B2, “Metallo-beta-lactamase inhibitors” (priority 2015, dated 2020).

This data set relates to Pseudomonas aeruginosa PAO1 MB9798 (efflux+, IMP-1). To be noted: ratio MITC95 PA 9798/MITC95 PA 9799; imipenem at 2 μg/mL. Summed up: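 Isogenic PAO1 pair (efflux+ MB9798, efflux− MB9799, both IMP-1) tested by microbroth MIC with fixed imipenem and/or ceftazidime, usually at CLSI breakpoint, plus fixed class A/C inhibitor against AmpC. MBL inhibitor titrated; concentration restoring susceptibility recorded and fold difference between strains taken as efflux extent.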
In the case of `NCCCNS(=O)(=O)c1ccc(-c2cccc3[nH]c(N)nc23)c(-c2nn[nH]n2)c1S(N)(=O)=O` [Example 182, 4-(2-amino-1H-benzo[d]imidazol-4-yl)-N1-(3-aminopropyl)-3-(2H-tetrazol-5-yl)benzene-1,2-disulfonamide], the Efflux ratio is given as 0.80.

For the compound `Cn1c(N)nc2c(-c3ccc(S(=O)(=O)NCCCN)c(S(N)(=O)=O)c3-c3nn[nH]n3)cccc21` [Example 183, 4-(2-amino-1-methyl-1H-benzo[d]imidazol-4-yl)-N^1-(3-aminopropyl)-3-(2H-tetrazol-5-yl)benzene-1,2-disulfonamide], the Efflux ratio is 1.00. Consider `C[C@H](N)CNS(=O)(=O)c1ccc(-c2cccc3[nH]c(N)nc23)c(-c2nn[nH]n2)c1S(N)(=O)=O` [Example 184, 4-(2-amino-1H-benzo[d]imidazol-4-yl)-N1-((S)-2-aminopropyl)-3-(2H-tetrazol-5-yl)benzene-1,2-disulfonamide], for which the Efflux ratio was determined as 1.00. `C[C@@H](N)CNS(=O)(=O)c1ccc(-c2cccc3[nH]c(N)nc23)c(-c2nn[nH]n2)c1S(N)(=O)=O` [Example 185, 4-(2-amino-1H-benzo[d]imidazol-4-yl)-N1-((R)-2-aminopropyl)-3-(2H-tetrazol-5-yl)benzene-1,2-disulfonamide]: the Efflux ratio is 0.65.

Take `C[C@@H](CN)NS(=O)(=O)c1ccc(-c2cccc3[nH]c(N)nc23)c(-c2nn[nH]n2)c1S(N)(=O)=O` [Example 186, 4-(2-amino-1H-benzo[d]imidazol-4-yl)-N^1—((S)-1-aminopropan-2-yl)-3-(2H-tetrazol-5-yl)benzene-1,2-disulfonamide]: the Efflux ratio is given as 2.00. The figure for `C[C@H](CN)NS(=O)(=O)c1ccc(-c2cccc3[nH]c(N)nc23)c(-c2nn[nH]n2)c1S(N)(=O)=O` [Example 187, 4-(2-amino-1H-benzo[d]imidazol-4-yl)-N^1—((R)-1-aminopropan-2-yl)-3-(2H-tetrazol-5-yl)benzene-1,2-disulfonamide] is 0.50. Regarding `NC(=O)[C@H](N)CNS(=O)(=O)c1ccc(-c2cccc3[nH]c(N)nc23)c(-c2nn[nH]n2)c1S(N)(=O)=O` [Example 188, (2R)-2-amino-3-(4-(2-amino-1H-benzo[d]imidazol-4-yl)-2-sulfamoyl-3-(2H-tetrazol-5-yl)phenylsulfonamido)propanamide], the Efflux ratio is listed as 0.50. Take `NC(=O)[C@@H](N)CNS(=O)(=O)c1ccc(-c2cccc3[nH]c(N)nc23)c(-c2nn[nH]n2)c1S(N)(=O)=O` [Example 189, (2S)-2-amino-3-(4-(2-amino-1H-benzo[d]imidazol-4-yl)-2-sulfamoyl-3-(2H-tetrazol-5-yl)phenylsulfonamido)propanamide]: the Efflux ratio is listed as 0.50. For `Nc1nc2c(-c3ccc(S(=O)(=O)NC[C@@H](N)CO)c(S(N)(=O)=O)c3-c3nn[nH]n3)cccc2[nH]1` [Example 190, 4-(2-amino-1H-benzo[d]imidazol-4-yl)-N1-((R)-2-amino-3-hydroxypropyl)-3-(2H-tetrazol-5-yl)benzene-1,2-disulfonamide], the Efflux ratio turned out to be 0.50.

Turning to `Nc1nc2c(-c3ccc(S(=O)(=O)NC[C@H](N)CO)c(S(N)(=O)=O)c3-c3nn[nH]n3)cccc2[nH]1` [Example 191, 4-(2-amino-1H-benzo[d]imidazol-4-yl)-N^1—((S)-2-amino-3-hydroxypropyl)-3-(2H-tetrazol-5-yl)benzene-1,2-disulfonamide], the Efflux ratio is 1.00.

Consider `NS(=O)(=O)c1c(S(=O)(=O)N[C@@H]2CCNC2)ccc(-c2cccc3[nH]cnc23)c1-c1nn[nH]n1` [Example 193, 4-(1H-benzo[d]imidazol-4-yl)-N1-((R)-pyrrolidin-3-yl)-3-(2H-tetrazol-5-yl)benzene-1,2-disulfonamide], for which the Efflux ratio worked out at 1.00. The figure for `Nc1ccc(-c2ccc(S(=O)(=O)N[C@@H]3CCNC3)c(S(N)(=O)=O)c2-c2nn[nH]n2)cn1` [Example 194, (R)-4-(6-aminopyridin-3-yl)-N^1-(pyrrolidin-3-yl)-3-(2H-tetrazol-5-yl)benzene-1,2-disulfonamide] is 0.80. The figure for `Nc1ccc(-c2ccc(S(=O)(=O)N[C@H]3CCNC3)c(S(N)(=O)=O)c2-c2nn[nH]n2)cn1` [Example 195, (S)-4-(6-aminopyridin-3-yl)-N^1-(pyrrolidin-3-yl)-3-(2H-tetrazol-5-yl)benzene-1,2-disulfonamide] is 1.00; for `NCCNS(=O)(=O)c1ccc(-c2ccc(N)nc2)c(-c2nn[nH]n2)c1S(N)(=O)=O` [Example 196, N^1-(2-aminoethyl)-4-(6-aminopyridin-3-yl)-3-(2H-tetrazol-5-yl)benzene-1,2-disulfonamide] it is 1.00; for `NS(=O)(=O)c1c(S(=O)(=O)N[C@H]2CCNC2)ccc(-c2cccc3[nH]cnc23)c1-c1nn[nH]n1` [Example 197, 4-(1H-benzo[d]imidazol-4-yl)-N^1—((S)-pyrrolidin-3-yl)-3-(2H-tetrazol-5-yl)benzene-1,2-disulfonamide] it is 1.00. Then `NCCCNS(=O)(=O)c1ccc(-c2cccc3[nH]cnc23)c(-c2nn[nH]n2)c1S(N)(=O)=O` [Example 198, N^1-(3-aminopropyl)-4-(1H-benzo[d]imidazol-4-yl)-3-(2H-tetrazol-5-yl)benzene-1,2-disulfonamide], with 1.00. In the case of `NCCNS(=O)(=O)c1ccc(-c2cccc3[nH]cnc23)c(-c2nn[nH]n2)c1S(N)(=O)=O` [Example 199, N^1-(2-aminoethyl)-4-(1H-benzo[d]imidazol-4-yl)-3-(2H-tetrazol-5-yl)benzene-1,2-disulfonamide], the Efflux ratio is 0.55.

In the case of `NS(=O)(=O)c1c(S(=O)(=O)N[C@H]2C[C@H](N)C2)ccc(-c2cccc3[nH]cnc23)c1-c1nn[nH]n1` [Example 200, N^1-((1r,3r)-3-aminocyclobutyl)-4-(1H-benzo[d]imidazol-4-yl)-3-(2H-tetrazol-5-yl)benzene-1,2-disulfonamide], the Efflux ratio worked out at 1.00. The figure for `NC[C@@H](CO)NS(=O)(=O)c1ccc(-c2cccc3sc(N)nc23)c(-c2nnn[nH]2)c1S(N)(=O)=O` [Example 201, (S)—N^1-(1-amino-3-hydroxypropan-2-yl)-4-(2-aminobenzo[d]thiazol-4-yl)-3-(1H-tetrazol-5-yl)benzene-1,2-disulfonamide] is 0.50. Then `NC[C@H](CO)NS(=O)(=O)c1ccc(-c2cccc3sc(N)nc23)c(-c2nnn[nH]2)c1S(N)(=O)=O` [Example 202, (R)—N^1-(1-amino-3-hydroxypropan-2-yl)-4-(2-aminobenzo[d]thiazol-4-yl)-3-(1H-tetrazol-5-yl)benzene-1,2-disulfonamide], with 1.00; and `NCCOCCNS(=O)(=O)c1ccc(-c2cccc3sc(N)nc23)c(-c2nnn[nH]2)c1S(N)(=O)=O` [Example 203, 4-(2-aminobenzo[d]thiazol-4-yl)-N^1-(2-(2-aminoethoxy)ethyl)-3-(1H-tetrazol-5-yl)benzene-1,2-disulfonamide], with 0.50. As for `NCCNC(=O)c1cccc(-c2ccc(S(=O)(=O)NCCN)c(S(N)(=O)=O)c2-c2nn[nH]n2)c1N` [Example 204, 2-amino-N-(2-aminoethyl)-4′-(N-(2-aminoethyl)sulfamoyl)-5′-sulfamoyl-6′-(2H-tetrazol-5-yl)biphenyl-3-carboxamide], the Efflux ratio was determined as 1.00. Then `Nc1nc2c(-c3ccc(S(=O)(=O)N4CC[C@@H](F)[C@H](N)C4)c(S(N)(=O)=O)c3-c3nn[nH]n3)cccc2[nH]1` [Example 205, 3-(2-amino-1H-benzo[d]imidazol-4-yl)-6-(((3R,4R)-3-amino-4-fluoropiperidin-1-yl)sulfonyl)-2-(2H-tetrazol-5-yl)benzenesulfonamide], with 8.00; and `Nc1nc2c(-c3ccc(S(=O)(=O)NCC4COCCN4)c(S(N)(=O)=O)c3-c3nn[nH]n3)cccc2[nH]1` (stereo not drawn) [Example 206, 4-(2-amino-1H-benzo[d]imidazol-4-yl)-N1-(morpholin-3-ylmethyl)-3-(2H-tetrazol-5-yl)benzene-1,2-disulfonamide], with 2.00; and `Nc1nc2c(-c3ccc(S(=O)(=O)NCC4CCN4)c(S(N)(=O)=O)c3-c3nn[nH]n3)cccc2[nH]1` (stereo not drawn) [Example 207, 4-(2-amino-1H-benzo[d]imidazol-4-yl)-N1-(azetidin-2-ylmethyl)-3-(2H-tetrazol-5-yl)benzene-1,2-disulfonamide], with 2.00. Then `C[C@H](N)CC(=O)NS(=O)(=O)c1ccc(-c2cccc3[nH]c(N)nc23)c(-c2nn[nH]n2)c1S(N)(=O)=O` [Example 208, (S)-3-amino-N-((4-(2-amino-1H-benzo[d]imidazol-4-yl)-2-sulfamoyl-3-(2H-tetrazol-5-yl)phenyl)sulfonyl)butanamide], with 1.00; and `NCC(CN)NS(=O)(=O)c1ccc(-c2cccnc2N)c(-c2nn[nH]n2)c1S(N)(=O)=O` [Example 210, 4-(2-aminopyridin-3-yl)-N1-(1,3-diaminopropan-2-yl)-3-(2H-tetrazol-5-yl)benzene-1,2-disulfonamide], with 2.00; and `CC(C)(CN)NS(=O)(=O)c1ccc(-c2cccnc2N)c(-c2nn[nH]n2)c1S(N)(=O)=O` [Example 211, N1-(1-amino-2-methylpropan-2-yl)-4-(2-aminopyridin-3-yl)-3-(2H-tetrazol-5-yl)benzene-1,2-disulfonamide], with 4.00. The figure for `C[C@H](CN)NS(=O)(=O)c1ccc(-c2cccnc2N)c(-c2nn[nH]n2)c1S(N)(=O)=O` [Example 212, (R)-N1-(1-aminopropan-2-yl)-4-(2-aminopyridin-3-yl)-3-(2H-tetrazol-5-yl)benzene-1,2-disulfonamide] is 1.00; for `NC[C@H](N)CNS(=O)(=O)c1ccc(-c2cccnc2N)c(-c2nn[nH]n2)c1S(N)(=O)=O` [Example 213, (S)-4-(2-aminopyridin-3-yl)-N1-(2,3-diaminopropyl)-3-(2H-tetrazol-5-yl)benzene-1,2-disulfonamide] it is 2.00.
